Entries after “also recorded” stand apart in the source; their conditions may differ. Calls of active or inactive are those of the source. No rule for the calls is given here.
System: CCRIS mutagenicity, Ames/micronucleus/aberration tests
Experiment: CCRIS mutagenicity studies

## OO
End Point: IN VITRO CHROMOSOMAL ABERRATIONS, Test System: CHO CELLS, Metabolic Activation: NONE
  mutagenic call: active; positive (structural changes)
End Point: IN VITRO CHROMOSOMAL ABERRATIONS, Test System: CHO-K1, Metabolic Activation: NONE
  mutagenic call: active; positive
End Point: IN VITRO CHROMOSOMAL ABERRATIONS, Test System: SYRIAN HAMSTER EMBRYO (SHE) CELLS, Metabolic Activation: NONE
  mutagenic call: active; positive (structural changes)
End Point: IN VITRO MICRONUCLEUS, Test System: CHL/IU CELLS, Metabolic Activation: NONE
  mutagenic call: active; positive
End Point: IN VITRO MICRONUCLEUS, Test System: CHO CELLS, Metabolic Activation: RAT, LIVER, S-9, AROCLOR 1254
  mutagenic call: inactive; negative
End Point: IN VITRO MICRONUCLEUS, Test System: HUMAN LYMPHOCYTES, Metabolic Activation: NONE
  mutagenic call: inactive; negative; main effect of h2o2 was necrosis
End Point: In vitro micronucleus, Test System: Chinese hamster V79 cells, Metabolic Activation: None
  mutagenic call: active; positive (hibiscus tiliaceus l methanolic extract at doses above 0.010 mg/ml had
End Point: In vitro micronucleus, Test System: Chinese hamster ovary (CHO) cells, Metabolic Activation: None
  mutagenic call: active; positive (lycopene (10, 25 and 50 um) significantly reduced the number of micron
Test System: AMES SALMONELLA TYPHIMURIUM, Strain/Indicator: SB1106, Metabolic Activation: NONE, Method: PREINCUBATION
  mutagenic call: active; positive
Test System: AMES SALMONELLA TYPHIMURIUM, Strain/Indicator: SB1106, Metabolic Activation: NONE, Method: STANDARD PLATE
  mutagenic call: active; positive
Test System: AMES SALMONELLA TYPHIMURIUM, Strain/Indicator: SB1106P, Metabolic Activation: NONE, Method: PREINCUBATION
  mutagenic call: active; positive
Test System: AMES SALMONELLA TYPHIMURIUM, Strain/Indicator: SB1106P, Metabolic Activation: NONE, Method: STANDARD PLATE
  mutagenic call: active; positive
Test System: AMES SALMONELLA TYPHIMURIUM, Strain/Indicator: SB1111, Metabolic Activation: NONE, Method: PREINCUBATION
  mutagenic call: inactive; negative
Test System: AMES SALMONELLA TYPHIMURIUM, Strain/Indicator: SB1111, Metabolic Activation: NONE, Method: STANDARD PLATE
  mutagenic call: active; positive
Test System: AMES SALMONELLA TYPHIMURIUM, Strain/Indicator: TA92, Metabolic Activation: NONE, Method: PREINCUBATION
  mutagenic call: inactive; negative
Test System: AMES SALMONELLA TYPHIMURIUM, Strain/Indicator: TA97, Metabolic Activation: NONE, Method: STANDARD PLATE
  mutagenic call: active; positive
Test System: AMES SALMONELLA TYPHIMURIUM, Strain/Indicator: TA97, Metabolic Activation: RAT, LIVER, S-9, PHENOBARBITAL, Method: LIQUID INCUBATION
  mutagenic call: active; positive
Test System: AMES SALMONELLA TYPHIMURIUM, Strain/Indicator: TA97, Metabolic Activation: RAT, LIVER, S-9, PHENOBARBITAL, Method: STANDARD PLATE
  mutagenic call: active; positive
Test System: AMES SALMONELLA TYPHIMURIUM, Strain/Indicator: TA98, Metabolic Activation: NONE, Method: PREINCUBATION
  mutagenic call: inactive; negative
Test System: AMES SALMONELLA TYPHIMURIUM, Strain/Indicator: TA98, Metabolic Activation: NONE, Method: STANDARD PLATE
  mutagenic call: inactive; negative
Test System: AMES SALMONELLA TYPHIMURIUM, Strain/Indicator: TA98, Metabolic Activation: RAT, LIVER, S-9, AROCLOR 1254, Method: PREINCUBATION
  mutagenic call: inactive; negative
Test System: AMES SALMONELLA TYPHIMURIUM, Strain/Indicator: TA98, Metabolic Activation: RAT, LIVER, S-9, AROCLOR 1254, Method: STANDARD PLATE
  mutagenic call: inactive; negative
Test System: AMES SALMONELLA TYPHIMURIUM, Strain/Indicator: TA100, Metabolic Activation: NONE, Method: PREINCUBATION
  mutagenic call: inactive; negative
Test System: AMES SALMONELLA TYPHIMURIUM, Strain/Indicator: TA100, Metabolic Activation: NONE, Method: STANDARD PLATE
  mutagenic call: active; positive
Test System: AMES SALMONELLA TYPHIMURIUM, Strain/Indicator: TA100, Metabolic Activation: RAT, LIVER, S-9, AROCLOR 1254, Method: PREINCUBATION
  mutagenic call: inactive; negative
Test System: AMES SALMONELLA TYPHIMURIUM, Strain/Indicator: TA100, Metabolic Activation: RAT, LIVER, S-9, AROCLOR 1254, Method: STANDARD PLATE
  mutagenic call: active; positive
Test System: AMES SALMONELLA TYPHIMURIUM, Strain/Indicator: TA102, Metabolic Activation: RAT, LIVER, S-9, AROCLOR 1254, Method: PREINCUBATION
  mutagenic call: inactive; negative
Test System: AMES SALMONELLA TYPHIMURIUM, Strain/Indicator: TA104, Metabolic Activation: NONE, Method: PREINCUBATION
  mutagenic call: active; positive
Test System: AMES SALMONELLA TYPHIMURIUM, Strain/Indicator: TA104, Metabolic Activation: NONE, Method: STANDARD PLATE
  mutagenic call: active; positive
Test System: AMES SALMONELLA TYPHIMURIUM, Strain/Indicator: TA1535, Metabolic Activation: NONE, Method: PREINCUBATION
  mutagenic call: inactive; negative
Test System: AMES SALMONELLA TYPHIMURIUM, Strain/Indicator: TA1535, Metabolic Activation: NONE, Method: STANDARD PLATE
  mutagenic call: inactive; negative
Test System: AMES SALMONELLA TYPHIMURIUM, Strain/Indicator: TA1535, Metabolic Activation: RAT, LIVER, S-9, AROCLOR 1254, Method: STANDARD PLATE
  mutagenic call: inactive; negative
Test System: AMES SALMONELLA TYPHIMURIUM, Strain/Indicator: TA1537, Metabolic Activation: NONE, Method: STANDARD PLATE
  mutagenic call: inactive; negative
Test System: AMES SALMONELLA TYPHIMURIUM, Strain/Indicator: TA1537, Metabolic Activation: RAT, LIVER, S-9, AROCLOR 1254, Method: STANDARD PLATE
  mutagenic call: inactive; negative
Test System: AMES SALMONELLA TYPHIMURIUM, Strain/Indicator: TA1537, Metabolic Activation: RAT, LIVER, S-9, PHENOBARBITAL, Method: LIQUID INCUBATION
  mutagenic call: active; positive
Test System: AMES SALMONELLA TYPHIMURIUM, Strain/Indicator: TA1537, Metabolic Activation: RAT, LIVER, S-9, PHENOBARBITAL, Method: STANDARD PLATE
  mutagenic call: active; positive
Test System: AMES SALMONELLA TYPHIMURIUM, Strain/Indicator: TA1538, Metabolic Activation: NONE, Method: STANDARD PLATE
  mutagenic call: inactive; negative
Test System: AMES SALMONELLA TYPHIMURIUM, Strain/Indicator: TA1538, Metabolic Activation: RAT, LIVER, S-9, AROCLOR 1254, Method: STANDARD PLATE
  mutagenic call: inactive; negative
Test System: AMES SALMONELLA TYPHIMURIUM, Strain/Indicator: TA1975, Metabolic Activation: NONE, Method: PREINCUBATION
  mutagenic call: inactive; negative
Test System: AMES SALMONELLA TYPHIMURIUM, Strain/Indicator: TA2638, Metabolic Activation: NONE, Method: STANDARD PLATE
  mutagenic call: active; positive
Test System: AMES SALMONELLA TYPHIMURIUM, Strain/Indicator: TA2638A, Metabolic Activation: NONE, Method: STANDARD PLATE
  mutagenic call: active; positive
Test System: AMES SALMONELLA TYPHIMURIUM, Strain/Indicator: YG3001, Metabolic Activation: NONE, Method: PREINCUBATION
  mutagenic call: inactive; negative
Test System: AMES SALMONELLA TYPHIMURIUM, Strain/Indicator: YG3002, Metabolic Activation: NONE, Method: PREINCUBATION
  mutagenic call: inactive; negative
Test System: AMES SALMONELLA TYPHIMURIUM, Strain/Indicator: YG3003, Metabolic Activation: NONE, Method: PREINCUBATION
  mutagenic call: active; positive
Test System: Ames Salmonella typhimurium, Strain/Indicator: TA102, Metabolic Activation: None, Method: Preincubation
  mutagenic call: active; positive (decrease in mutagenicity when 0.99-15.90 mg/plate of chloroform extrac; also recorded: active; positive (dose related decrease in mutagenicity when 1.82-7.30 mg/plate of metha
Test System: Ames Salmonella typhimurium, Strain/Indicator: TA102, Metabolic Activation: Rat, Liver, S-9, Aroclor 1254, Method: Preincubation
  mutagenic call: active; positive (decrease in mutagenicity when 0.99-15.90 mg/plate of chloroform extrac; also recorded: active; positive (decrease in mutagenicity when 0.46 or 0.91 mg/plate of methanol extrac
Test System: CHINESE HAMSTER G10, Strain/Indicator: G10 (GPT)/6-THIOGUANINE, Metabolic Activation: NONE
  mutagenic call: inactive; negative
Test System: CHINESE HAMSTER G12, Strain/Indicator: G12 (GPT)/6-THIOGUANINE, Metabolic Activation: NONE
  mutagenic call: active; positive
Test System: CHINESE HAMSTER V79 CELLS, Strain/Indicator: V79 CELLS (HPRT)/6-THIOGUANINE, Metabolic Activation: NONE, Method: PREINCUBATION
  mutagenic call: inactive; negative
Test System: CHINESE HAMSTER V-79, Strain/Indicator: V-79 (HPRT)/6-THIOGUANINE, Metabolic Activation: NONE
  mutagenic call: inactive; negative
Test System: CHINESE HAMSTER V-79, Strain/Indicator: V-79/6-THIOGUANINE, Metabolic Activation: NONE, Method: FLASK ASSAY
  mutagenic call: inactive; negative
Test System: CHINESE HAMSTER V-79, Strain/Indicator: V-79/6-THIOGUANINE, Metabolic Activation: NONE, Method: STANDARD PLATE
  mutagenic call: active; positive
Test System: CHINESE HAMSTER V-79, Strain/Indicator: V-79/8-AZAGUANINE, Metabolic Activation: NONE
  mutagenic call: active; positive
Test System: Chinese hamster ovary cells, Strain/Indicator: EM9 (HPRT)/6-Thioguanine, Metabolic Activation: None
  mutagenic call: active; positive
Test System: E. COLI, Strain/Indicator: WP2 (PKM101), Metabolic Activation: NONE, Method: STANDARD PLATE
  mutagenic call: active; positive
Test System: E. COLI, Strain/Indicator: WP2, Metabolic Activation: NONE, Method: STANDARD PLATE
  mutagenic call: inactive; negative
Test System: E. COLI, Strain/Indicator: WP2, Metabolic Activation: RAT, LIVER, S-9, AROCLOR 1254, Method: STANDARD PLATE
  mutagenic call: inactive; negative
Test System: E. COLI, Strain/Indicator: WP2 UVRA (PKM101), Metabolic Activation: NONE, Method: STANDARD PLATE
  mutagenic call: active; positive
Test System: HCT116 COLON CANCER CELLS, Strain/Indicator: HCT116 CELLS (HPRT)/6-THIOGUANINE, Metabolic Activation: NONE, Method: PREINCUBATION
  mutagenic call: active; positive
Test System: HUMAN T LYMPHOCYTES, Strain/Indicator: PRIMARY CULTURES (HPRT)/6-THIOGUANINE, Metabolic Activation: NONE, Method: PREINCUBATION
  mutagenic call: active; positive
Test System: MOUSE LYMPHOMA, Strain/Indicator: L5178Y (TK+/TK-), Metabolic Activation: NONE, Method: SUSPENSION/PLATE
  mutagenic call: active; positive
Test System: UDS HUMAN FIBROBLASTS, Strain/Indicator: THY INCORP (NON-S-PHASE), Metabolic Activation: NONE, Method: AUTORADIOGRAPHY
  mutagenic call: active; positive
Test System: UDS HUMAN FIBROBLASTS, Strain/Indicator: THY INCORP, Metabolic Activation: NONE, Method: AUTORADIOGRAPHY
  mutagenic call: active; positive

From PubChem BioAssay AID1259407 (Chemical Carcinogenesis Research Information System (CCRIS), 2018)
